Values joined by “and” are separate entries in the source; they are usually repeats but may differ in a detail not shown here. Equal values may be shown once. “Also recorded” adds a separate entry of the source.
Target: T1, GST–[T233E]SPAK kinase (Homo sapiens, UniProt Q9UEW8, T231E)
T1 construct: made in house; host or cells: E. coli
Assay: SPAK kinase assay with CATCHtide and IC50 determination
Type: biochemical
Settings: for ZT-1a vs SPAK+MO25, kinase activity / ZT-1a vs SPAK, kinase activity: Fig S7b; for ZT-1a vs SPAK, kinase activity: SPAK alone
From the text: II. Experimental procedures
1. Reagents and General methods
Tissue culture reagents were from Life Technologies. P81 phosphocellulose paper was from Whatman […]
and [γ-32P]-ATP was from Perkin Elmer. […] Protein G […]
sepharose was from Amersham. DNA constructs used for transfection were purified from Escherichia coli DH5α using Qiagen or Invitrogen plasmid Maxi kits according to the manufacturer's protocol. All DNA constructs were verified by DNA sequencing.
2. Plasmids, protein expression and purification
DNA clones were from the Division of Signal Transduction Therapy (University of Dundee). The SPAK proteins were expressed in E. Coli and purified as described previously 1.
3. SPAK kinase assays and IC50 determination
SPAK kinase assays employed CATCHtide (cation chloride co-transporter peptide substrate). Peptide kinase assays, performed in triplicate, were set up in a total volume of 50 μl containing 0.5 μg GST– […]
cpm/pmol) and the indicated concentrations of inhibitor dissolved in DMSO. After incubation for 30 min at 30°C, reactions were terminated by spotting 40 μl of the reaction mix onto P81 phosphocellulose paper and immersion in 50 mM phosphoric acid. The papers were washed extensively and incorporation of [γ-32P]ATP into CATCHtide was quantified by Cerenkov counting.
IC50 values were calculated with GraphPad Prism using non-linear regression analysis.
4. Fluorescence polarization […]
concentrations between 0.00001 to 1 mM. Data points are the means of three determinations, with error […]
A Supplemental Fig. 7 Effects of increasing concentrations of ZT-1a on SPAK activity in the absence […]
the absence or presence of five-fold molar excess of wild-type MO25α. b Kinetic data determined for B ZT-1a in the absence or presence of five-fold molar excess of wild-type MO25α. Data are means of […]
presence of wild-type MO25α.

Structure (SMILES): Cc1cc(C(C#N)c2ccc(Cl)cc2)c(Cl)cc1NC(=O)c1cc(Cl)ccc1O (stereo not drawn) [ZT-1a, 5-chloro-N-(5-chloro-4-((4-chlorophenyl)(cyano)methyl)-2-methylphenyl)-2-hydroxybenzamide]
- SPAK kinase activity signal (Fig S3 source data) (ATP 0.1 mM, inhibitor 1 uM): 802 and 788 and 766
- SPAK kinase activity signal (Fig S3 source data) (ATP 0.1 mM, inhibitor 3 uM): 706 and 686 and 718
- SPAK kinase activity signal (Fig S3 source data) (ATP 0.1 mM, inhibitor 10 uM): 561 and 556 and 583
- SPAK kinase activity signal (Fig S3 source data) (ATP 0.1 mM, inhibitor 100 uM): 226 and 309 and 284
- SPAK kinase activity signal (Fig S3 source data) (ATP 0.1 mM, inhibitor 1000 uM): 187 and 106 and 158
- SPAK kinase activity signal (Fig S3 source data) (ATP 1 mM, inhibitor 1e-5 uM): 880 and 891 and 864
- SPAK kinase activity signal (Fig S3 source data) (ATP 1 mM, inhibitor 0.0001 uM): 892 and 902 and 916
- SPAK kinase activity signal (Fig S3 source data) (ATP 1 mM, inhibitor 0.001 uM): 869 and 902 and 885
- SPAK kinase activity signal (Fig S3 source data) (ATP 1 mM, inhibitor 0.03 uM): 812 and 786 and 753
- SPAK kinase activity signal (Fig S3 source data) (ATP 1 mM, inhibitor 0.1 uM): 862 and 807 and 759
- SPAK kinase activity signal (Fig S3 source data) (ATP 1 mM, inhibitor 0.3 uM): 768 and 789 and 736
- SPAK kinase activity signal (Fig S3 source data) (ATP 1 mM, inhibitor 1 uM): 662 and 719 and 681
- SPAK kinase activity signal (Fig S3 source data) (ATP 1 mM, inhibitor 3 uM): 641 and 604 and 563
- SPAK kinase activity signal (Fig S3 source data) (ATP 1 mM, inhibitor 10 uM): 554 and 604 and 587
- SPAK kinase activity signal (Fig S3 source data) (ATP 1 mM, inhibitor 100 uM): 453 and 345 and 405
- SPAK kinase activity signal (Fig S3 source data) (ATP 1 mM, inhibitor 1000 uM): 222 and 164 and 186
- change of SPAK IC50 values with increasing ATP concentration (ATP between 0.01 and 1 mM): unchanged; also recorded: unaffected by changing [ATP]
- ZT-1a vs SPAK+MO25, kinase activity (ZT-1a 1e-5 uM): 401897 C.P.M and 396529 C.P.M and 387112 C.P.M
- ZT-1a vs SPAK+MO25, kinase activity (ZT-1a 0.0001 uM): 393641 C.P.M and 402385 C.P.M and 384718 C.P.M
- ZT-1a vs SPAK+MO25, kinase activity (ZT-1a 0.001 uM): 392612 C.P.M and 367664 C.P.M and 337143 C.P.M
- ZT-1a vs SPAK+MO25, kinase activity (ZT-1a 0.003 uM): 363431 C.P.M and 388438 C.P.M and 371694 C.P.M
- ZT-1a vs SPAK+MO25, kinase activity (ZT-1a 0.01 uM): 359080 C.P.M and 382836 C.P.M and 362174 C.P.M
- ZT-1a vs SPAK+MO25, kinase activity (ZT-1a 0.03 uM): 408327 C.P.M and 384102 C.P.M and 373519 C.P.M
- ZT-1a vs SPAK+MO25, kinase activity (ZT-1a 0.1 uM): 381538 C.P.M and 398205 C.P.M and 371203 C.P.M
- ZT-1a vs SPAK+MO25, kinase activity (ZT-1a 0.3 uM): 371591 C.P.M and 394205 C.P.M and 361553 C.P.M
- ZT-1a vs SPAK+MO25, kinase activity (ZT-1a 1 uM): 365869 C.P.M and 359432 C.P.M and 371032 C.P.M
- ZT-1a vs SPAK+MO25, kinase activity (ZT-1a 3 uM): 354403 C.P.M and 355755 C.P.M and 331937 C.P.M
- ZT-1a vs SPAK+MO25, kinase activity (ZT-1a 10 uM): 325521 C.P.M and 299490 C.P.M and 282196 C.P.M
- ZT-1a vs SPAK+MO25, kinase activity (ZT-1a 100 uM): 119789 C.P.M and 97606 C.P.M and 83035 C.P.M
- ZT-1a vs SPAK+MO25, kinase activity (ZT-1a 1000 uM): 31455 C.P.M and 51772 C.P.M and 49172 C.P.M
- ZT-1a vs SPAK, kinase activity (ZT-1a 1e-5 uM): 48785 C.P.M and 47183 C.P.M and 49610 C.P.M
- ZT-1a vs SPAK, kinase activity (ZT-1a 0.0001 uM): 46475 C.P.M and 45108 C.P.M and 47685 C.P.M
- ZT-1a vs SPAK, kinase activity (ZT-1a 0.001 uM): 47080 C.P.M and 46113 C.P.M and 46420 C.P.M
- ZT-1a vs SPAK, kinase activity (ZT-1a 0.003 uM): 44660 C.P.M and 45821 C.P.M and 45595 C.P.M
- ZT-1a vs SPAK, kinase activity (ZT-1a 0.01 uM): 45890 C.P.M and 44094 C.P.M and 44440 C.P.M
- ZT-1a vs SPAK, kinase activity (ZT-1a 0.03 uM): 44825 C.P.M and 43187 C.P.M and 44890 C.P.M
- ZT-1a vs SPAK, kinase activity (ZT-1a 0.1 uM): 44275 C.P.M and 42127 C.P.M and 44780 C.P.M
- ZT-1a vs SPAK, kinase activity (ZT-1a 0.3 uM): 44230 C.P.M and 41993 C.P.M and 43780 C.P.M
- ZT-1a vs SPAK, kinase activity (ZT-1a 1 uM): 43840 C.P.M and 42097 C.P.M and 44510 C.P.M
- ZT-1a vs SPAK, kinase activity (ZT-1a 3 uM): 41230 C.P.M and 39714 C.P.M and 40580 C.P.M
- ZT-1a vs SPAK, kinase activity (ZT-1a 10 uM): 29580 C.P.M and 31008 C.P.M and 33855 C.P.M
- ZT-1a vs SPAK, kinase activity (ZT-1a 100 uM): 14995 C.P.M and 17307 C.P.M and 16430 C.P.M
- ZT-1a vs SPAK, kinase activity (ZT-1a 1000 uM): 5830 C.P.M and 7520 C.P.M and 9285 C.P.M
- IC50 (absence of wild-type MO25α): 40.5 µM
- IC50 (presence of five-fold molar excess of wild-type MO25α): 41.3 µM

— publication PMC6946680, “Modulation of brain cation-Cl^− cotransport via the SPAK kinase inhibitor ZT-1a” (Nature Communications, 2020)
